Experimental data from patent US20070218555A1, “Anti-Microbial Activity Of Biologically Stabilized Silver Nano Particles” (priority 2004, published 2007).

Assays:
[1] = system: Pseudomonas aeruginosa MDR strain; assay: Interaction of drugs with silver nano particles, checkerboard macrodilution (FICI); assay type: cell-based; conditions: drug in combination with biologically stabilized silver nano particles
Protocol: Interaction of drugs with biologically stabilized silver nano particles. A two-dimensional checkerboard macrodilution technique was used to characterize interactions between biologically stabilized silver nano particles and drug (viz. Gentamicin, Penicillin, Cefotaxime, Ceptazidime, Kanamycin, Vancomycin). six experiments were performed for Pseudomonas aeruginosa MDR strain described above. Inoculum was prepared similarly to those for susceptibility testing. Individual drug with biologically stabilized silver nano particles were diluted in serial twofold dilutions, and concentrations ranged from four fold below to four folds above the MIC. The highest dilution of the drug combination with biologically stabilized silver nano particles that inhibits the visible growth of the test organism was regarded as the fractional inhibitory concentration (FIC). The fractional inhibitory concentration (FIC) index (FICI) was used to define the interaction between the two drugs. The FICI is the sum of the FICs of each of the drugs. The FIC was calculated as follows: MIC of the drug tested in combination/MIC of the drug tested alone. The interaction was defined as synergistic if the FICI was […], as additive if the FICI was >0.5 to 1.0, as indifferent if the FICI was >1.0 to 2.0, and as antagonistic if the FICI was >2.0.

[2] = system: human dermal fibroblast cells; conditions: cited from earlier work

Row | SMILES | interaction by mean FICI [1] | low concentration of silver ions showing inhibitory effect [2]
1 | CC(C)(O/N=C(\C(=O)N[C@@H]1C(=O)N2C(C(=O)[O-])=C(C[n+]3ccccc3)CS[C@H]12)c1csc(N)n1)C(=O)O [ceptazidime] | partially synergistic | 
2 | O=[N+]([O-])[O-].[Ag+] [silver nitrate] |  | 8.2 μM/l
